# Test results taken from PubChem BioAssay AID330 (DTP/NCI, 2004).
# Where “and” joins values, the source holds several entries; their conditions need not be identical. Equal entries are not always repeated. Toxic doses and inconclusive results are not listed.
# Test system: P388 leukemia ip, CD2F1 mice, survival T/C
# Experiment: NCI In Vivo Anticancer Drug Screen. Data for tumor model P388 Leukemia (intraperitoneal) in CD2F1 (CDF1) mice
# Conditions: endpoint: median survival time, higher = longer survival
# Outline: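 Mice carrying the transplanted tumor received test compound or vehicle. Survival was recorded in each group, and the value is the treated-group measurement divided by that of the vehicle-treated control group.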
# [1] = dose: 100.0 mg/kg/injection, schedule: Q01DX009 (ip), vehicle: saline with Tween-80
# [2] = dose: 200.0 mg/kg/injection, schedule: Q01DX009 (ip), vehicle: saline with Tween-80
# [3] = dose: 60.0 mg/kg/injection, schedule: Q01DX005 (ip), vehicle: saline with Tween-80
# [4] = dose: 120.0 mg/kg/injection, schedule: Q01DX005 (ip), vehicle: saline with Tween-80
# [5] = dose: 240.0 mg/kg/injection, schedule: Q01DX005 (ip), vehicle: saline with Tween-80
# [6] = dose: 50.0 mg/kg/injection, schedule: Q01DX005 (ip), vehicle: saline
# [7] = dose: 100.0 mg/kg/injection, schedule: Q01DX005 (ip), vehicle: saline
# [8] = dose: 200.0 mg/kg/injection, schedule: Q01DX005 (ip), vehicle: saline
structure (smiles),measurement,setting,value
CC(=O)/C(=C\c1c(Cl)cccc1Cl)C(=O)CCN(C)C,T/C,"dose: 7.5 mg/kg/injection, schedule: Q01DX005 (ip), vehicle: saline",120 % of control
same,T/C,"dose: 15.0 mg/kg/injection, schedule: Q01DX005 (ip), vehicle: saline",117 % of control
same,T/C,"dose: 30.0 mg/kg/injection, schedule: Q01DX005 (ip), vehicle: saline",117 % of control
COc1ccc(CCCNC(=O)Cc2ccccc2)cc1OC,T/C,"dose: 50.0 mg/kg/injection, schedule: Q01DX009 (ip), vehicle: saline with Tween-80",92 % of control
same,T/C,[1],92 % of control
same,T/C,[2],91 % of control
CC(=O)C(C=O)C(C)=O.CC(=O)CC(C)=O.CC(=O)CC(C)=O.[Ru],T/C,"dose: 15.0 mg/kg/injection, schedule: Q01DX005 (ip), vehicle: saline with Tween-80",100 % of control
same,T/C,"dose: 30.0 mg/kg/injection, schedule: Q01DX005 (ip), vehicle: saline with Tween-80",102 % of control
same,T/C,[3],104 % of control and 109 % of control
COC(=O)C(=O)C(C(=O)C(c1ccccc1)c1ccccc1)c1nc2n(c1O)/C(=N/C(=O)Nc1ccc(Cl)cc1)N=N2 (stereo unspecified),T/C,[3],100 % of control
same,T/C,[4],98 % of control
same,T/C,[5],99 % of control
CCN(CCCl)/N=N/c1nc2c([nH]1)c(=O)n(C)c(=O)n2C,T/C,[6],100 % of control
same,T/C,[7],105 % of control
same,T/C,[8],109 % of control
CCOc1c(N=Nc2ccccc2[N+](=O)[O-])c(C)nn1C(N)=S,T/C,"dose: 15.0 mg/kg/injection, schedule: Q01DX005 (ip), vehicle: Klucel + Tween-80",100 % of control
same,T/C,"dose: 30.0 mg/kg/injection, schedule: Q01DX005 (ip), vehicle: Klucel + Tween-80",89 % of control
same,T/C,"dose: 60.0 mg/kg/injection, schedule: Q01DX005 (ip), vehicle: Klucel + Tween-80",86 % of control and 90 % of control
Nc1nc2c(ncn2[C@@H](CO)OC(CO)CO)c(=O)[nH]1,T/C,"dose: 50.0 mg/kg/injection, schedule: Q01DX005 (ip), vehicle: Klucel (hydroxypropylcellulose) (HPC)",99 % of control
same,T/C,"dose: 100.0 mg/kg/injection, schedule: Q01DX005 (ip), vehicle: Klucel (hydroxypropylcellulose) (HPC)",98 % of control
same,T/C,"dose: 200.0 mg/kg/injection, schedule: Q01DX005 (ip), vehicle: Klucel (hydroxypropylcellulose) (HPC)",98 % of control
CCOC(=O)/C=C(\C)NC1CC(OC2CC(O)(C(C)=O)Cc3c(O)c4c(c(O)c32)C(=O)c2c(OC)cccc2C4=O)OC(C)C1O (stereo unspecified),T/C,"dose: 6.25 mg/kg/injection, schedule: Q04DX003 (ip), vehicle: distilled water + Tween-80",110 % of control
same,T/C,"dose: 12.5 mg/kg/injection, schedule: Q04DX003 (ip), vehicle: distilled water + Tween-80",119 % of control
same,T/C,"dose: 50.0 mg/kg/injection, schedule: Q04DX003 (ip), vehicle: distilled water + Tween-80",118 % of control
CCOC(=O)c1ccc(NC(=O)Oc2ccc(NC(C)=O)cc2)cc1,T/C,"dose: 60.0 mg/kg/injection, schedule: Q01DX005 (ip), vehicle: Klucel (hydroxypropylcellulose) (HPC)",98 % of control
same,T/C,"dose: 120.0 mg/kg/injection, schedule: Q01DX005 (ip), vehicle: Klucel (hydroxypropylcellulose) (HPC)",92 % of control
same,T/C,"dose: 240.0 mg/kg/injection, schedule: Q01DX005 (ip), vehicle: Klucel (hydroxypropylcellulose) (HPC)",92 % of control
Cc1cccc(Cl)c1NC(=O)NCCCN1CCOCC1,T/C,[3],102 % of control
same,T/C,[4],100 % of control
same,T/C,[5],112 % of control
CCC(Br)C(=O)SC(C)(C)C (stereo unspecified),T/C,"dose: 100.0 mg/kg/injection, schedule: Q04DX003 (ip), vehicle: saline with Tween-80",111 % of control
same,T/C,"dose: 200.0 mg/kg/injection, schedule: Q04DX003 (ip), vehicle: saline with Tween-80",106 % of control
CCN(CC)CCCC(=O)O,T/C,[6],100 % of control
same,T/C,[7],100 % of control
same,T/C,[8],100 % of control
CCCCC[CH2][Ge]([CH2]CCC)([CH2]CCC)[CH]1CCCCC1,T/C,"dose: 50.0 mg/kg/injection, schedule: Q01DX009 (ip), vehicle: saline",106 % of control
same,T/C,"dose: 100.0 mg/kg/injection, schedule: Q01DX009 (ip), vehicle: saline",103 % of control
same,T/C,"dose: 200.0 mg/kg/injection, schedule: Q01DX009 (ip), vehicle: saline",95 % of control
O=C1OCC(C(=O)N2Cc3cc4ccccc4nc3C2)C1CO (stereo unspecified),T/C,[1],94 % of control
same,T/C,[2],115 % of control
same,T/C,"dose: 400.0 mg/kg/injection, schedule: Q01DX009 (ip), vehicle: saline with Tween-80",105 % of control
